These results are taken from patent US11078232B2, “Preparation and use of molecular site targeted and activated kinase inhibitor” (Yafei Shanghai Biology Medicine Science & Technology Co. …, priority 2017, dated 2021).

Like-named read-outs stand apart in the source and are kept apart here. Residues, ends and D or L forms follow the SMILES beside them. *: point of attachment. Doxorubicin(3'-N) = COc1cccc2c1C(=O)c1c(O)c3c(c(O)c1C2=O)C[C@@](O)(C(=O)CO)C[C@@H]3O[C@H]1C[C@H](N*)[C@H](O)[C@H](C)O1; X1 = CN(CCNC(=O)c1cc(Oc2ccc(NC(=O)Nc3ccc(Cl)c(C(F)(F)F)c3)cc2)ccn1)*; Hexanoyl(6-maleimido) = O=C1C=CC(=O)N1CCCCCC(=O)*

In one series the test system is BALB/C mouse. In words: MTD (maximum tolerated dose) acute toxicity in mice. The conditions noted are these: intravenous; for Number of deaths: 10 mice per group; for Death dose: observed 17 days. Type of series: in vivo. The text has this: (§1) Test purpose: to investigate the acute toxicity of highly activated compounds by targeted site molecules of the invention by measuring the MTD (maximum tolerated dose) experiment in mice.
(§2) The injections of each drug and the control drug were uniformly dissolved using water for injection, and diluted to the corresponding dose with physiological saline during the test.
(§3) Methods and results: […] BALB/C mice, weighing 19-21 g, were randomly divided into 10 groups, with 10 mice in each group. […] A control test of the saline group and the adriamycin group injection (commercially available, Beijing Yue kang) was carried out, and the injection volume of each mouse was 0.2 ml. […] On the D3, D5, and D14, blood samples were taken for whole blood count.

The next series has as its system D121 lung cancer cells. In words: D121 lung cancer immunotherapy model.
Series [1] concerns CT26 tumor cells. The experiment in a line: CT26 treatment model (Example 17). Type of series: in vivo, mice. The conditions noted are these: CT26 model as in Example 15. As to the method:
(§4) 1) CT26 tumor cells were purchased from ATCC, and the cells were cultured using a 10% fetal bovine serum DMEM medium at 37° C., 5% CO2. The cells were passaged every 3 days and the cells were used within 15 generations.
(§5) 2) Tumor production: 10^6 live CT26 tumor cells were injected subcutaneously into the back of tumor-immunized […], and treatment was started when the tumor grew to about 0.3-0.4 cm. The tumor size (mm^3) of the mice was recorded and compared with the solvent control group. The tumor inhibition rate on day 42 was calculated in the solvent control group.
(§6) 3) Treatment process: IV injection is used, and the drug is used at a dose of ⅓ MTD once a week Immunosuppressive IV injection treatment once a week for a total of 6 weeks of treatment.
(§7) 4) The cure rate of 10 in each group was counted. After 50 days, the cured mice and wild groups were inoculated […] to detect recurrence.
The CT26 immunotherapy model was constructed as in Example 15, and the pharmacodynamic and immunotherapeutic effects of the compounds S4-S6, S9-S12 and S15-S18 in the CT26 treatment model were tested.

Series [2] deals with CT26 tumor cells. In words: CT26 immunotherapy model (Example 15). In kind it is in vivo, mice. Here is the method: as §4, §5, §6, §7
Series [3] in a line: MTD (maximum tolerated dose) acute toxicity in mice. In kind it is in vivo, mouse. The conditions noted are these: mouse, in vivo, BALB/C mice, intravenous, observed 17 days; for MTD at 17 days: female.
Description: as §1, §2, §3

Series [4] can be described thus: Solid stability, 60° C. for 10 days in the dark (HPLC). In kind it is physicochemical. Here is the method:
The test was carried out by leaving it at 60° C. for 10 days in the dark. The ratio of the change in the content of the compound to the compound at time 0 was measured by HPLC, and the stability value (%) was calculated.

Where [5] appears, read: solid, 60° C., 10 days, dark, content versus time 0.

Description for D121 lung cancer cells: (1) D121 lung cancer cells purchased from ATCC were cultured in DMEM medium containing 10% fetal bovine serum at 37° C. and 5% CO2, and the cells were digested with EDTA trypsin according to routine use, and passed two to three times a week for placement.
(2) Animals: C57 BALB/C mice, 6-8 weeks old, female, weighing about 18-22 g, purchased from Shanghai SLAC Laboratory Animal Co., Ltd.
3) Immunization: Mice were intraperitoneally injected with 100 μL of 5×10^5 D121 lung cancer cells that died by repeated freeze-thaw cycles, and immunized 3 times with an interval of 2 weeks.
4) Cell seeding: Collect the tumor cells in logarithmic growth phase, adjust the D121 cell concentration to (1×10^7/ml) with DMEM basal medium, 0.1 ml of the cell suspension was inoculated to the right side of each mouse subcutaneously with a 1 ml syringe. […] Tumor volume was observed and measured, and the average tumor volume reached 100-200 mm^3 about 7 days after inoculation, that is, tumor cell-bearing mice were grouped and administered. The immunized group in Table 9 was immunized with D121 lung cancer cells, and the D121 dead tumor cell immunized group was injected with physiological saline as a control.
The immunosuppressive regulatory point protein Anti-PD-L1 antibody was injected twice a week. A total of two weeks.
6) Experimental observation: During the whole experiment, the use and observation of experimental animals were carried out in accordance with the regulations of AAALAC. The experimental animals were observed daily after inoculation of tumor cells, and their onset and death were recorded. During the routine experiment, all experimental animals were monitored and recorded for behavior, feeding, water intake, weight change, hair shine and other abnormalities.
(7) Analysis of tumor CD8+ T cells (T lymphocyte subsets). Tumor tissues were ground and single cancer cells were isolated by filtration using 40 μm Nylon cell strainer, lysed twice with blood cell lysis buffer for 20 min, washed twice with 1% BSA-PBS buffer, centrifuged, and resuspended, and then the cells were counted again. 1×10^5 cells were incubated with leukocyte co-antigen CD45-PE and CD8-FITC-labeled antibody for 1 hour at room temperature in the dark, and then analyzed the proportion of T lymphocyte antigen (CD8) in leukocyte common antigen (CD45)-positive cells by flow cytometry.

As to `COc1cccc2c1C(=O)c1c(O)c3c(c(O)c1C2=O)C[C@@](O)(C(=O)CO)C[C@@H]3O[C@H]1C[C@H](N)[C@H](O)[C@H](C)O1` [Adriamycin, reference compound], in the series with BALB/C mouse, the Number of deaths amounted to 3 and the “Death dose” value is reported as 10 mg/kg. The “effect on T cells” value with D121 lung cancer cells (flow cytometry, discussion of Table 6) is recorded as “inhibited T cells”. For the same compound, the “Tumor inhibition rate/% (week 7)” value in the series on D121 lung cancer cells (single agent, i.v. ⅙ MTD once a week for 4 weeks) turned out to be 14.6%. The “CD8: CD45 (%)” value with D121 lung cancer cells (single agent, tumor CD8+ T cells among CD45-positive cells, flow cytometry) was determined as 5.4%. In the series on CT26 tumor cells [1], the “CD8: CD45 (%)” value amounted to 6.4%, the “Number of animals cured” value came out at 0 and the “Tumor inhibition rate/% (at week 7)” value is reported as 14.6%. In the series on CT26 tumor cells [2] (10 in each group), the Cure rate % amounted to 0% and the Number of cures is 0. In the series on CT26 tumor cells [2] (IV ⅓ MTD once a week, 6 weeks), the “Tumor inhibition rate % (Day 42)” value is listed as 24.5%.

Compound `CC(C)C[C@H](NC(=O)[C@H](CC(N)=O)NC(=O)[C@H](C)NC(=O)[C@H](C)N)C(=O)N(C)CCNC(=O)c1cc(Oc2ccc(NC(=O)Nc3ccc(Cl)c(C(F)(F)F)c3)cc2)ccn1` [Compound C1, AANL-Compound a, reference compound] (H-AANL-X1) returned an MTD at 17 days in series [3] of 65 mg/kg. Also, in the series with BALB/C mouse, the Number of deaths was 1 and the “Death dose” value is listed as 80 mg/kg. In addition, the “Stability verdict (stable / unstable)” value in series [4] (solid, 60° C., 10 days, dark) is given as “stable”. In addition, in series [4] (setting [5]), the “Stability(%)” value turned out to be 96.8%.

`C[C@H](N)C(=O)N[C@@H](C)C(=O)N[C@@H](CC(N)=O)C(=O)Nc1ccc(COC(=O)N(C)CCNC(=O)c2cc(Oc3ccc(NC(=O)Nc4ccc(Cl)c(C(F)(F)F)c4)cc3)ccn2)cc1` [Compound C2, AAN-PABC-Compound a, reference compound]: in series [3], the MTD at 17 days stood at 60 mg/kg. Also, in the series on BALB/C mouse, the Number of deaths stood at 2 and the “Death dose” value was determined as 70 mg/kg. Besides, in series [4] (solid, 60° C., 10 days, dark), the “Stability verdict (stable / unstable)” value is “unstable”. In addition, the “Stability(%)” value in series [4] (setting [5]) is given as 89.4%.

In the case of `COc1cccc2c1C(=O)c1c(O)c3c(c(O)c1C2=O)C[C@@](O)(C(=O)CO)C[C@@H]3O[C@H]1C[C@H](NC(=O)[C@H](CC(C)C)NC(=O)[C@H](CC(N)=O)NC(=O)[C@H](C)NC(=O)[C@H](C)NC(=O)CCCCCN2C(=O)C=CC2=O)[C@H](O)[C@H](C)O1` [Compound C11, EMC-AANL-Adriamycin, reference compound] ({Hexanoyl(6-maleimido)}-AANL-{Doxorubicin(3'-N)}), in series [3], the maximal tolerated dose (MTD) at 17 days is 110 mg/kg. In the series on BALB/C mouse, the Number of deaths was determined as 2 and the “Death dose” value was determined as 120 mg/kg. For the same compound, in series [4], the “Stability verdict (stable / unstable)” value is reported as 96.5, stable and the “Stability(%)” value is 96.5, stable %.

`COc1cccc2c1C(=O)c1c(O)c3c(c(O)c1C2=O)C[C@](O)(C(=O)CO)CC3OC1C[C@H](NC(=O)OCc2ccc(NC(=O)C(CC(N)=O)NC(=O)C(C)NC(=O)C(NC(=O)[C@H](O)[C@H](O)[C@@H](O[C@@H]3O[C@H](CO)[C@H](O)[C@H](O)[C@H]3O)[C@H](O)CO)C(C)C)cc2)[C@H](O)[C@H](C)O1` (stereo partly shown) [Compound S9] had an MTD at 17 days in series [3] of 100 mg/kg. For the same compound, in the series with BALB/C mouse, the Number of deaths stood at 2 and the “Death dose” value was 120 mg/kg. In the series with CT26 tumor cells [1], the “CD8: CD45 (%)” value was 13.8%, the “Number of animals cured” value turned out to be 3, the “Recurrence rate/% (at week 10)” value came to 0% and the “Tumor inhibition rate/% (at week 7)” value came out at 66.7%.

As to `CC(NC(=O)C(NC(=O)[C@H](O)[C@H](O)[C@@H](O[C@@H]1O[C@H](CO)[C@H](O)[C@H](O)[C@H]1O)[C@H](O)CO)C(C)C)C(=O)NC(CC(N)=O)C(=O)Nc1ccc(COC(=O)Nc2nccc(-c3sc(C(C)(C)C)nc3-c3cccc(NS(=O)(=O)c4c(F)cccc4F)c3F)n2)cc1` (stereo partly shown) [Compound S10], in series [3], the MTD at 17 days was determined as 310 mg/kg. Also, in the series with BALB/C mouse, the Number of deaths is recorded as 1 and the “Death dose” value amounted to 320 mg/kg. Besides, in the series with CT26 tumor cells [1], the “CD8: CD45 (%)” value is 15.9%, the “Number of animals cured” value worked out at 2, the “Recurrence rate/% (at week 10)” value was 0% and the “Tumor inhibition rate/% (at week 7)” value stood at 76.7%.

Turning to `CC(NC(=O)C(NC(=O)[C@H](O)[C@H](O)[C@@H](O[C@@H]1O[C@H](CO)[C@H](O)[C@H](O)[C@H]1O)[C@H](O)CO)C(C)C)C(=O)NC(CC(N)=O)C(=O)Nc1ccc(COC(=O)Nc2c(-c3nc4ccc(N5CCN(C)CC5)cc4[nH]3)c(=O)[nH]c3cccc(F)c23)cc1` (stereo partly shown) [Compound S11], the maximal tolerated dose (MTD) at 17 days in series [3] was 300 mg/kg. For the same compound, in the series with BALB/C mouse, the Number of deaths is reported as 2 and the “Death dose” value came to 330 mg/kg. Besides, in the series with CT26 tumor cells [1], the “CD8: CD45 (%)” value is 15.1%, the “Number of animals cured” value is reported as 2, the “Recurrence rate/% (at week 10)” value worked out at 0% and the “Tumor inhibition rate/% (at week 7)” value worked out at 69.3%.

In series [3], `CC(NC(=O)C(NC(=O)[C@H](O)[C@H](O)[C@@H](O[C@@H]1O[C@H](CO)[C@H](O)[C@H](O)[C@H]1O)[C@H](O)CO)C(C)C)C(=O)NC(CC(N)=O)C(=O)Nc1ccc(COC(=O)N2CC(C)(C)c3ccc(NC(=O)c4cccnc4NCc4ccncc4)cc32)cc1` (stereo partly shown) [Compound S12] returned a maximum tolerated dose (MTD) at 17 days of 290 mg/kg. In the series with BALB/C mouse, the Number of deaths turned out to be 1 and the “Death dose” value was found to be 300 mg/kg. In the series on CT26 tumor cells [1], the “CD8: CD45 (%)” value is recorded as 10.8%, the “Number of animals cured” value is 1, the “Recurrence rate/% (at week 10)” value is recorded as 0% and the “Tumor inhibition rate/% (at week 7)” value worked out at 55.5%.

`COc1cccc2c1C(=O)c1c(O)c3c(c(O)c1C2=O)C[C@](O)(C(=O)CO)CC3OC1C[C@H](NC(=O)OCc2ccc(NC(=O)C(CC(N)=O)NC(=O)C(C)NC(=O)C(NC(=O)[C@H](O)[C@H](O)[C@@H](O[C@@H]3O[C@H](CO)[C@H](O)[C@H](O)[C@H]3O)[C@H](O)CO)C(C)O)cc2)[C@H](O)[C@H](C)O1` (stereo partly shown) [Compound S15] registered an MTD at 17 days in series [3] of 90 mg/kg. In the series with BALB/C mouse, the Number of deaths was 1 and the “Death dose” value amounted to 100 mg/kg. In the series with CT26 tumor cells [1], the “CD8: CD45 (%)” value worked out at 15.3%, the “Number of animals cured” value is 1, the “Recurrence rate/% (at week 10)” value was found to be 0% and the “Tumor inhibition rate/% (at week 7)” value was found to be 70.2%.

`C[C@H](NC(=O)[C@@H](NC(=O)[C@H](O)[C@@H](O)[C@H](O[C@@H]1O[C@H](CO)[C@H](O)[C@H](O)[C@H]1O)[C@H](O)CO)[C@@H](C)O)C(=O)N[C@@H](CC(N)=O)C(=O)Nc1ccc(COC(=O)Nc2nccc(-c3sc(C(C)(C)C)nc3-c3cccc(NS(=O)(=O)c4c(F)cccc4F)c3F)n2)cc1` [Compound S16] showed an MTD in series [3] of 290 mg/kg. For the same compound, in the series on BALB/C mouse, the Number of deaths came out at 2 and the “Death dose” value is listed as 300 mg/kg. For the same compound, in the series on CT26 tumor cells [1], the “CD8: CD45 (%)” value is 15.5%, the “Number of animals cured” value is 2, the “Recurrence rate/% (at week 10)” value is reported as 0% and the “Tumor inhibition rate/% (at week 7)” value was 71.6%.

Turning to `CC(NC(=O)C(NC(=O)[C@H](O)[C@H](O)[C@@H](O[C@@H]1O[C@H](CO)[C@H](O)[C@H](O)[C@H]1O)[C@H](O)CO)C(C)O)C(=O)NC(CC(N)=O)C(=O)Nc1ccc(COC(=O)Nc2c(-c3nc4ccc(N5CCN(C)CC5)cc4[nH]3)c(=O)[nH]c3cccc(F)c23)cc1` (stereo partly shown) [Compound S17], the MTD at 17 days in series [3] was determined as 290 mg/kg. For the same compound, in the series with BALB/C mouse, the Number of deaths came out at 1 and the “Death dose” value was found to be 310 mg/kg. Also, in the series on CT26 tumor cells [1], the “CD8: CD45 (%)” value was determined as 16.2%, the “Number of animals cured” value is 1, the “Recurrence rate/% (at week 10)” value was found to be 0% and the “Tumor inhibition rate/% (at week 7)” value turned out to be 70.9%.

The compound `CC(NC(=O)C(NC(=O)[C@H](O)[C@H](O)[C@@H](O[C@@H]1O[C@H](CO)[C@H](O)[C@H](O)[C@H]1O)[C@H](O)CO)C(C)O)C(=O)NC(CC(N)=O)C(=O)Nc1ccc(COC(=O)N2CC(C)(C)c3ccc(NC(=O)c4cccnc4NCc4ccncc4)cc32)cc1` (stereo partly shown) [Compound S18] returned an MTD at 17 days in series [3] of 280 mg/kg. Moreover, in the series with BALB/C mouse, the Number of deaths amounted to 2 and the “Death dose” value came to 290 mg/kg. For the same compound, in the series on CT26 tumor cells [1], the “CD8: CD45 (%)” value is on record as 15.6%, the “Number of animals cured” value stood at 2, the “Recurrence rate/% (at week 10)” value turned out to be 0% and the “Tumor inhibition rate/% (at week 7)” value is listed as 71.7%.
